From patent US20040023978A1, “Active salt forms with tyrosine kinase activity” (priority 2002, published 2004)
Where two headings read alike, the source gives them in different places.

What was measured:
[1] = Hygroscopicity, step isotherm at 25° C.; assay type: physicochemical; details: 90-95% RH
Protocol: The hygroscopicity of the mesylate salt was determined at 25° C. using a step isotherm program for relative humidities from 0 to 95% RH following drying at 40° C./0%RH for two hours.

[2] = Stability of the crystal form (XRPD, hot-stage XRPD)
Description: The mesylate salt (Form A) was further studied using hot-stage XRPD. […] The dehydration could also be achieved by suspending the mesylate monohydrate in hot acetonitrile.

[3] = Solubility at room temperature (HPLC isocratic method); assay type: physicochemical

solubility ([3]; aqueous with cosolvent or surfactant or cyclodextrin, thermodynamic from solid, 10% HP-βCD, pH adjusted with 0.1 N HCl to about pH 3, room temperature, read-out: Solubility) [mg/mL] | solubility ([3]; aqueous with cosolvent or surfactant or cyclodextrin, thermodynamic from solid, 15% HP-βCD, pH adjusted with 0.1 N HCl to about pH 3, room temperature, read-out: Solubility) [mg/mL] | solubility ([3]; aqueous with cosolvent or surfactant or cyclodextrin, thermodynamic from solid, 20% HP-βCD, pH adjusted with 0.1 N HCl to about pH 3, room temperature, read-out: Solubility) [mg/mL] | solubility ([3]; aqueous with cosolvent or surfactant or cyclodextrin, thermodynamic from solid, 25% HP-βCD, pH adjusted with 0.1 N HCl to about pH 3, room temperature, read-out: Solubility) [mg/mL] | solubility ([3]; aqueous with cosolvent or surfactant or cyclodextrin, thermodynamic from solid, 25% PEG/10% EtOH, room temperature, read-out: Solubility) [mg/mL] | solubility ([3]; aqueous with cosolvent or surfactant or cyclodextrin, thermodynamic from solid, 30% PG/10% EtOH, room temperature, read-out: Solubility) [mg/mL] | solubility ([3]; organic solvent or mixture, thermodynamic from solid, Ethanol, room temperature, read-out: Solubility) [mg/mL] | solubility ([3]; organic solvent or mixture, thermodynamic from solid, IPA, room temperature, read-out: Solubility) [mg/mL] | solubility ([3]; organic solvent or mixture, thermodynamic from solid, PEG, room temperature, read-out: Solubility) [mg/mL] | solubility ([3]; organic solvent or mixture, thermodynamic from solid, PG, room temperature, read-out: Solubility) [mg/mL] | solubility ([3]; thermodynamic from solid, water, room temperature (Table I), read-out: Solubility) [mg/mL] | solubility ([3]; water (text b274), read-out: solubility in water) [mg/mL] | Compound | weight gain [1] | stability of the form under ambient conditions ([2]; ambient conditions overnight) | behaviour of the aqueous solution on aging ([2]; water, aged for two days, recovered solid by XRPD the monohydrate (Form A))
– | – | – | – | – | – | – | – | – | – | – | – | 1-({2-[(5-cyano-1,3-thiazol-2-yl)amino]pyridin-. 4-yl}methyl)-4-[(methylamino)carbonyl]piperazin-1-ium methanesulfonate [dehydrated mesylate salt (Form B)] | about 1.2 % wt. | stable | a white precipitate was noticed
27.1 | 35.3 | 40.7 | 45 | 11.6 | 13.6 | 0.98 | 0.64 | 1.41 | 30.4 | 6.65 | 4.7 | CNC(=O)N1CCN(Cc2ccnc(Nc3ncc(C#N)s3)c2)CC1.CS(=O)(=O)O [mesylate salt (Form A), 1-({2-[(5-cyano-1,3-thiazol-2-yl)amino]pyridin-4-yl}methyl)-4-[(methylamino)carbonyl]piperazin-1-ium methanesulfonate] | – | – | –
